In patent US20260124201A1, “CYCLOPENTANE COMPOUND” (Kissei Pharmaceutical Co., Ltd., priority 2022, published 2026):

Test system: NT1 patients
Test: not given
Details: clinical study; cited from earlier work

For `COC(=O)N1CCC[C@H](NS(C)(=O)=O)[C@@H]1CO[C@H]1CC[C@@H](c2ccccc2)CC1` [TAK-925], the “wakefulness and daytime sleepiness” value is listed as “maintaining wakefulness and reducing daytime sleepiness”.

Target: T1, human OX2R (Homo sapiens, UniProt O43614)
T1 construct: expressed in transfected cells
T1 sequence (O43614 1-444): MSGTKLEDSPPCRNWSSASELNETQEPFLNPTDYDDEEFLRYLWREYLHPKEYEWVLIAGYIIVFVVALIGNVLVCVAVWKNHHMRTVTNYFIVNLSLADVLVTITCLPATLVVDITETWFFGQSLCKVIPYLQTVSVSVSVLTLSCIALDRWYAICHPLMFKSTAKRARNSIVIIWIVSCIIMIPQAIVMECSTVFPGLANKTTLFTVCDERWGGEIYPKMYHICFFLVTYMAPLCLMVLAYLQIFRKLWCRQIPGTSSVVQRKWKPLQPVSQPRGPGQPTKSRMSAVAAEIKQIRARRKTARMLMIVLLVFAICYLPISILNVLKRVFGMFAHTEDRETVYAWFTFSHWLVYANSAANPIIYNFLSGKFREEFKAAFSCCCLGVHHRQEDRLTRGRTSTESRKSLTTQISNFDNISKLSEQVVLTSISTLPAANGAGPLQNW
Test: Measurement of OX2R agonist activity (intracellular calcium concentration change, Fluo4-AM, FDSS 7000)
Format: cell-based
Details: compound concentration 10 μM; human OX2R-expressing CHO-K1 cells; 1 μM human orexin A peptide = 100%, medium alone = 0%
Summary of the method: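 Stable human OX2R-expressing CHO-K1 cells, loaded 45 min at 37 °C with 1.14 μM Fluo4-AM plus probenecid in HEPES-buffered HBSS pH 7.4; calcium fluorescence read by FDSS. Activation at 10 μM compound expressed relative to 1 μM human orexin A (100%) and medium alone (0%).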

In order of rising “Act. (%): activation rate of test substance” value:
1. CS(=O)(=O)N[C@H]1CC[C@](Cc2cccc(-c3ccccc3)c2)(C(=O)N2CCC(F)(F)C2)C1 (relative stereo) [Example 75]  23%
2. CON(C)C(=O)[C@@]1(Cc2cccc(-c3ncc(C(F)(F)F)cn3)c2)CC[C@H](NS(C)(=O)=O)C1 (relative stereo) [Example 19]  45%
3. CONC(=O)[C@@]1(Cc2cccc(-c3ncccn3)c2)CC[C@H](NS(C)(=O)=O)C1 (relative stereo) [Example 29, (1R*,3S*)—N-Methoxy-3-(methylsulfonamido)-1-(3-(pyrimidin-2-yl)benzyl)cyclopentane-1-carboxamide]  47%
4. CON(C)C(=O)[C@@]1(Cc2cccc(-c3ccccc3O)c2)CC[C@H](NS(C)(=O)=O)C1 (relative stereo) [Example 11]  71%
5. CON(C)C(=O)[C@@]1(Cc2ccc(F)c(-c3ncc(C)cn3)c2)CC[C@H](NS(C)(=O)=O)C1 (relative stereo) [Example 24]  83%
6. CCS(=O)(=O)N[C@@H]1C[C@@](Cc2ccc(F)c(-c3ncc(F)cn3)c2)(C(=O)N(C)OC)C[C@@H]1F (relative stereo) [Example 36, (1R*,3R*,4S*)-3-(Ethylsulfonamido)-4-fluoro-1-(4-fluoro-3-(5-fluoropyrimidin-2-yl)benzyl)-N-methoxy-N-methylcyclopentane-1-carboxamide]  84%
7. CON(C)C(=O)[C@@]1(Cc2cccc(-c3ccccc3)c2)CC[C@H](NS(C)(=O)=O)C1 (relative stereo) [Example 2, (1R*,3S*)-1-([1,1′-Biphenyl]-3-ylmethyl)-N-methoxy-N-methyl-3-(methylsulfonamido)cyclopentane-1-carboxamide]  84%
8. CON(C)C(=O)[C@@]1(Cc2cccc(-n3nccn3)c2)CC[C@H](NS(C)(=O)=O)C1 (relative stereo) [Example 27, (1R*,3S*)-1-(3-(2H-1,2,3-Triazol-2-yl)benzyl)-N-methoxy-N-methyl-3-(methylsulfonamido)cyclopentane-1-carboxamide]  87%
9. CON(C)C(=O)[C@@]1(Cc2ccc(Cl)c(-c3ncc(F)cn3)c2)CC[C@H](NS(C)(=O)=O)C1 [Example 49, (1R,3S)-1-(4-Chloro-3-(5-fluoropyrimidin-2-yl)benzyl)-N-methoxy-N-methyl-3-(methylsulfonamido)cyclopentane-1-carboxamide]  88%
10. CO[C@H]1C[C@](Cc2cccc(-c3ncc(F)cn3)c2)(C(=O)N(C)OC)C[C@H]1NS(C)(=O)=O [Example 67, (1R,3S,4R)-1-(3-(5-Fluoropyrimidin-2-yl)benzyl)-N,3-dimethoxy-N-methyl-4-(methylsulfonamido)cyclopentane-1-carboxamide]  88%
11. CON(C)C(=O)C1(Cc2cccc(-c3ncccn3)c2)CCC(NS(C)(=O)=O)C1 (single isomer, unassigned) [Example 46, N-Methoxy-N-methyl-3-(methylsulfonamido)-1-(3-(pyrimidin-2-yl)benzyl)cyclopentane-1-carboxamide]  93%
12. CON(C)C(=O)[C@@]1(Cc2cc(-c3ncccn3)ccc2F)C[C@H](F)[C@H](NS(=O)(=O)C(F)(F)F)C1 (relative stereo) [Example 38, (1R*,3S*,4R*)-3-Fluoro-1-(2-fluoro-5-(pyrimidin-2-yl)benzyl)-N-methoxy-N-methyl-4-((trifluoromethyl)sulfonamido)cyclopentane-1-carboxamide]  93%
13. CON(C)C(=O)[C@@]1(Cc2cccc(-c3ccco3)c2)CC[C@H](NS(C)(=O)=O)C1 (relative stereo) [Example 14]  93%
14. CON(C)C(=O)[C@]1(Cc2cccc(-c3ncc(F)cn3)c2)C[C@@H](NS(C)(=O)=O)C(F)(F)C1 [Example 66, (1R,4R)-3,3-Difluoro-1-(3-(5-fluoropyrimidin-2-yl)benzyl)-N-methoxy-N-methyl-4-(methylsulfonamido)cyclopentane-1-carboxamide]  95%
15. CCS(=O)(=O)N[C@@H]1C[C@@](Cc2ccc(Cl)c(-c3ncc(F)cn3)c2)(C(=O)N(C)OC)C[C@@H]1F [Example 63, (1R,3R,4S)-1-(4-Chloro-3-(5-fluoropyrimidin-2-yl)benzyl)-3-(ethylsulfonamido)-4-fluoro-N-methoxy-N-methylcyclopentane-1-carboxamide]  96%
16. CON(C)C(=O)[C@@]1(Cc2ccc(F)c(-c3ncc(F)cn3)c2)CC[C@H](NS(=O)(=O)CF)C1 [Example 50, (1R,3S)-1-(4-Fluoro-3-(5-fluoropyrimidin-2-yl)benzyl)-3-((fluoromethyl)sulfonamido)-N-methoxy-N-methylcyclopentane-1-carboxamide]  110%

Test system: wild-type mice
Test: not given
Details: subcutaneous administration; cited from earlier work

For `COC(=O)N1CCC[C@H](NS(C)(=O)=O)[C@@H]1CO[C@H]1CC[C@@H](c2ccccc2)CC1` [TAK-925], the wake time is listed as “prolonging of wake time”.
